Results on 8 molecules are retold here after PubChem BioAssay (NCI).

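Following 48 hours of exposure in 96-well plates, responses at five concentrations were used to interpolate endpoints linearly. The concentration for full growth arrest is given as TGI.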

Among the test systems are RXF 393 renal; HT29 colon; MOLT-4 leukemia; EKVX NSCLC; HOP-92 NSCLC; MDA-MB-435; CCRF-CEM leukemia; TK-10 renal; CAKI-1 renal; NCI-H23 lung; SK-MEL-2 melanoma; MALME-3M melanoma; PC-3 prostate; HOP-62 NSCLC; NCI-H522 lung; IGROV1 ovarian; OVCAR-3 ovarian; NCI-H226 lung; SNB-75 CNS.
Holding throughout (test): DTP human tumour cell line panel, 48 h

What is called TGI is the concentration giving total growth inhibition. Higher therefore signals less potent growth arrest.

Turning to `CCOC(=O)c1ccc(N=C2Sc3nc4ccccc4n3C2=Nc2ccc(C(=O)OCC)cc2)cc1`, the TGI in the experiment on RXF 393 renal was 59.3 µM; in the experiment with HT29 colon, above 100 µM; with MOLT-4 leukemia it was above 100 µM; in the experiment with EKVX NSCLC, above 100 µM; in the experiment on HOP-92 NSCLC, 35.9 µM; in the experiment with MDA-MB-435, above 100 µM. In addition, the TGI was above 100 µM in the experiment with CCRF-CEM leukemia; 32.6 µM in the experiment with TK-10 renal; 70.6 µM with CAKI-1 renal; 83.8 µM in the experiment on NCI-H23 lung; 91.5 µM with SK-MEL-2 melanoma; 51.8 µM in the experiment on MALME-3M melanoma. For the same molecule, the TGI with PC-3 prostate is above 100 µM; in the experiment on HOP-62 NSCLC, 46.5 µM; with NCI-H522 lung it was above 100 µM; in the experiment on IGROV1 ovarian, 60.4 µM; in the experiment on OVCAR-3 ovarian, 53.4 µM; in the experiment on NCI-H226 lung, 73.8 µM.

On to `O=C1CCC(=O)c2ccccc2N1`, for which the concentration for total growth inhibition (TGI) in the experiment on RXF 393 renal, with SNB-75 CNS, in the experiment on HT29 colon, in the experiment on MOLT-4 leukemia, with EKVX NSCLC and in the experiment with HOP-92 NSCLC was above 100 µM in each case. For the same molecule, the total growth inhibition concentration (TGI) in the experiment on CCRF-CEM leukemia, with TK-10 renal, in the experiment with CAKI-1 renal, in the experiment with NCI-H23 lung, with SK-MEL-2 melanoma and in the experiment with MALME-3M melanoma was above 100 µM throughout. Also, the concentration for total growth inhibition (TGI) with HOP-62 NSCLC, in the experiment on NCI-H522 lung, in the experiment with IGROV1 ovarian, in the experiment on OVCAR-3 ovarian and with NCI-H226 lung was above 100 µM each time.

In the case of `C/C(=C\[Si](C)(C)c1ccco1)C(C)(O)[C@H](C)O` (some centres undefined), the concentration for total growth inhibition (TGI) with HT29 colon, with MOLT-4 leukemia, with EKVX NSCLC, with HOP-92 NSCLC, in the experiment with MDA-MB-435 and with CCRF-CEM leukemia was above 100 µM in each case. Further, the concentration for total growth inhibition (TGI) was above 100 µM in the experiment with TK-10 renal; above 100 µM with CAKI-1 renal; 86.4 µM in the experiment on NCI-H23 lung; above 100 µM with SK-MEL-2 melanoma; above 100 µM in the experiment on MALME-3M melanoma; above 100 µM in the experiment with PC-3 prostate. The TGI in the experiment with HOP-62 NSCLC is above 100 µM; in the experiment with NCI-H522 lung, 74.4 µM; in the experiment with IGROV1 ovarian, above 100 µM; in the experiment on OVCAR-3 ovarian, above 100 µM; in the experiment on NCI-H226 lung it was above 100 µM.

Turning to `c1cc2c(cc1C1OCC3C(c4ccc5c(c4)OCO5)OCC13)OCO2` (centres undefined), the total growth inhibition concentration (TGI) with RXF 393 renal, in the experiment with SNB-75 CNS, in the experiment on HT29 colon, in the experiment on MOLT-4 leukemia, in the experiment on EKVX NSCLC and in the experiment on HOP-92 NSCLC was above 100 µM each time. For the same molecule, the TGI with CCRF-CEM leukemia, in the experiment on TK-10 renal, in the experiment with NCI-H23 lung, in the experiment on SK-MEL-2 melanoma, with MALME-3M melanoma and with HOP-62 NSCLC was above 100 µM each time. The TGI in the experiment with NCI-H522 lung, with IGROV1 ovarian, with OVCAR-3 ovarian and in the experiment on NCI-H226 lung was above 100 µM in each case.

As for `Cc1ccc(S(=O)(=O)c2ccc(C)cc2[N+](=O)[O-])c([N+](=O)[O-])c1`, the TGI with RXF 393 renal, in the experiment on SNB-75 CNS, in the experiment on HT29 colon, with EKVX NSCLC, with CCRF-CEM leukemia and in the experiment on TK-10 renal was above 100 µM each time. The TGI in the experiment on NCI-H23 lung, in the experiment with SK-MEL-2 melanoma, in the experiment with MALME-3M melanoma, with HOP-62 NSCLC, with NCI-H522 lung and with IGROV1 ovarian was above 100 µM each time. Besides, the TGI with OVCAR-3 ovarian and in the experiment on NCI-H226 lung was above 100 µM in each case.

Regarding `CN(C)CC1(Cc2ccccc2)CC/C(=C\c2ccccc2)C1=O` (centres undefined), the total growth inhibition concentration (TGI) in the experiment with RXF 393 renal is 92.8 µM; with SNB-75 CNS it was above 100 µM; in the experiment on HT29 colon, 52.6 µM; in the experiment on MOLT-4 leukemia it was 67.5 µM; in the experiment on HOP-92 NSCLC, above 100 µM; in the experiment with CCRF-CEM leukemia, 59.9 µM. Besides, the concentration for total growth inhibition (TGI) with TK-10 renal, in the experiment with CAKI-1 renal, in the experiment with NCI-H23 lung, with SK-MEL-2 melanoma, in the experiment with MALME-3M melanoma and in the experiment with HOP-62 NSCLC was above 100 µM in each case. The TGI is 30.1 µM with NCI-H522 lung, above 100 µM in the experiment on IGROV1 ovarian, above 100 µM with OVCAR-3 ovarian and above 100 µM in the experiment on NCI-H226 lung.

With `Cc1nn(CNc2ccc(F)c(Cl)c2)c(=S)n1/N=C/c1ccc(-c2ccc(Cl)cc2Cl)o1`, the total growth inhibition concentration (TGI) with RXF 393 renal is 34.3 µM; in the experiment on HT29 colon, 41.4 µM; in the experiment on MOLT-4 leukemia, 6.59 µM; in the experiment with EKVX NSCLC it was 42.6 µM; in the experiment with MDA-MB-435, 39 µM; with CCRF-CEM leukemia, 18.5 µM. The TGI with TK-10 renal came out at 28.9 µM; with CAKI-1 renal, 35.8 µM; in the experiment on NCI-H23 lung, 38.8 µM; in the experiment on SK-MEL-2 melanoma it was 41.3 µM; in the experiment with PC-3 prostate it was 30.9 µM; in the experiment with HOP-62 NSCLC it was 35.9 µM. Also, the TGI was 29.7 µM in the experiment on NCI-H522 lung, 34.6 µM with IGROV1 ovarian, 33.1 µM in the experiment with OVCAR-3 ovarian and 46.8 µM in the experiment with NCI-H226 lung.

For the molecule `Cc1c(-c2coc(-c3ccc([N+](=O)[O-])cc3)n2)c(=O)n(-c2ccccc2)n1C`, the TGI with SNB-75 CNS, in the experiment with HT29 colon, with MOLT-4 leukemia, in the experiment with EKVX NSCLC, in the experiment with HOP-92 NSCLC and in the experiment on CCRF-CEM leukemia was above 100 µM each time. Besides, the TGI in the experiment with TK-10 renal, in the experiment with NCI-H23 lung, in the experiment with SK-MEL-2 melanoma, in the experiment with MALME-3M melanoma, in the experiment on HOP-62 NSCLC and with NCI-H522 lung was above 100 µM in each case. Besides, the TGI with IGROV1 ovarian, with OVCAR-3 ovarian and in the experiment with NCI-H226 lung was above 100 µM throughout.
